{"source": "patent US9149475B2", "about": "“Protein kinase C inhibitors and uses thereof” (Rigel Pharmaceuticals, Inc., priority 2009, dated 2015)"}
{"test_system": "Human primary T cells", "assay": "IL-2 ELISA, human primary T cell, anti-CD3+CD28+ (whole cell assay)", "format": "cell-based", "conditions": "Homo sapiens, T-cell, 24 h, human primary T cells stimulated with anti-CD3 + anti-CD28, 24 hours", "procedure,_shortened": "(§1)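 PBMC-derived T cells, pre-expanded on αCD3/αCD28 with IL-2 and then washed free of IL-2, were preincubated with compound for 1 hr at 37° C (100,000 cells/well). They were then stimulated on 1 μg/ml αCD3 plus 5 μg/ml αCD28 for 24 h, and supernatant IL-2 was measured by ELISA. The counter-assay used 0.5 ng/ml PMA plus 0.1 μM ionomycin instead.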", "units": {"IC50": "nM"}}
{"molecule": "CN1C(C)(C)CC(Nc2nc(Nc3cc(F)cc(-c4nnnn4C)c3)ncc2F)CC1(C)C", "note": "[III-139, 5-fluoro-N2-(3-fluoro-5-(1-methyl-1H-tetrazol-5-yl)phenyl)-N4-(1,2,2,6,6-pentamethylpiperidin-4-yl)pyrimidine-2,4-diamine]", "IC50": "< 250"}
{"molecule": "Cn1nnnc1-c1cc(Nc2ncc(F)c(NC3CC(C)(C)NC(C)(C)C3)n2)cc(C(F)(F)F)c1", "note": "[III-140, 5-fluoro-N2-(3-(1-methyl-1H-tetrazol-5-yl)-5-(trifluoromethyl)phenyl)-N4-(2,2,6,6-tetramethylpiperidin-4-yl)pyrimidine-2,4-diamine]", "IC50": "< 250"}
{"molecule": "CN1C(C)(C)CC(Nc2nc(Nc3cc(-c4nnnn4C)cc(C(F)(F)F)c3)ncc2F)CC1(C)C", "note": "[III-141, 5-fluoro-N2-(3-(1-methyl-1H-tetrazol-5-yl)-5-(trifluoromethyl)phenyl)-N4-(1,2,2,6,6-pentamethylpiperidin-4-yl)pyrimidine-2,4-diamine]", "IC50": "< 250"}
{"molecule": "CC(C)Oc1c(F)cc(Nc2ncc(F)c(NC3CC(C)(C)NC(C)(C)C3)n2)cc1-c1nnnn1C", "note": "[III-142, 5-fluoro-N2-(3-fluoro-4-isopropoxy-5-(1-methyl-1H-tetrazol-5-yl)phenyl)-N4-(2,2,6,6-tetramethylpiperidin-4-yl)pyrimidine-2,4-diamine]", "IC50": "250 to 500"}
{"molecule": "Cn1nnnc1-c1cc(C#N)cc(Nc2ncc(F)c(NC3CC(C)(C)NC(C)(C)C3)n2)c1", "note": "[III-143, 3-(5-fluoro-4-(2,2,6,6-tetramethylpiperidin-4-ylamino)pyrimidin-2-ylamino)-5-(1-methyl-1H-tetrazol-5-yl)benzonitrile]", "IC50": "500 to 1000"}
{"molecule": "CN1C(C)(C)CC(Nc2nc(Nc3cc(C#N)cc(-c4nnnn4C)c3)ncc2F)CC1(C)C", "note": "[III-144, 3-(5-fluoro-4-(1,2,2,6,6-pentamethylpiperidin-4-ylamino)pyrimidin-2-ylamino)-5-(1-methyl-1H-tetrazol-5-yl)benzonitrile]", "IC50": "< 250"}
{"molecule": "Cn1nnnc1-c1cc(Nc2ncc(F)c(NC3CC(C)(C)NC(C)(C)C3)n2)cc(OC2COC2)c1", "note": "[III-145, 5-fluoro-N2-(3-(1-methyl-1H-tetrazol-5-yl)-5-(oxetan-3-yloxy)phenyl)-N4-(2,2,6,6-tetramethylpiperidin-4-yl)pyrimidine-2,4-diamine]", "IC50": "> 1000"}
{"molecule": "CN1C(C)(C)CC(Nc2nc(Nc3cc(OC4COC4)cc(-c4nnnn4C)c3)ncc2F)CC1(C)C", "note": "[III-146, 5-fluoro-N2-(3-(1-methyl-1H-tetrazol-5-yl)-5-(oxetan-3-yloxy)phenyl)-N4-(1,2,2,6,6-pentamethylpiperidin-4-yl)pyrimidine-2,4-diamine]", "IC50": "250 to 500"}
{"molecule": "Cn1nnnc1-c1cc(Nc2ncc(F)c(NC3CC(C)(C)NC(C)(C)C3)n2)cc(C2CC2)c1", "note": "[III-147, N2-(3-cyclopropyl-5-(1-methyl-1H-tetrazol-5-yl)phenyl)-5-fluoro-N4-(2,2,6,6-tetramethylpiperidin-4-yl)pyrimidine-2,4-diamine]", "IC50": "< 250"}
{"test_system": "Human primary T cells", "assay": "IL-2 ELISA, human primary T cell, anti-CD3+CD28+ (whole cell assay)", "format": "cell-based", "conditions": "human primary T cells stimulated with anti-CD3 + anti-CD28, 24 hours", "procedure,_shortened": "as §1", "units": {"IC50": "nM"}}
{"molecule": "N2-(3,5-Dimethoxyphenyl)-5-fluoro-N4-(1-N-oxide-2,2,6,6-pentamethylpiperidin-4-yl)-2,4-pyrimidinediamine [Compound I-111]", "IC50": "> 1000"}
